Measurements as given in the NIST ThermoML archive (doi:10.1007/s10765-014-1730-1).

Settings: Vibrating tube method; for specific volume: Gas; for mass density: Liquid

F/C=C\C(F)(F)F [(Z)-1,3,3,3-tetrafluoro-1-propene]
Settings	mass density [kg/m3]	specific volume [m3/kg]
328.15 K, 202.5 kPa	–	0.111
328.15 K, 209.8 kPa	–	0.107
328.15 K, 232.5 kPa	–	0.095
328.15 K, 370.9 kPa	–	0.057
330.15 K, 287.2 kPa	–	0.076
333.15 K, 90.7 kPa	–	0.26
333.15 K, 126.2 kPa	–	0.185
333.15 K, 206.1 kPa	–	0.111
333.15 K, 213.5 kPa	–	0.107
333.15 K, 236.7 kPa	–	0.096
333.15 K, 378.4 kPa	–	0.057
333.15 K, 30992 kPa	1237.9	–
333.15 K, 31993 kPa	1240.4	–
333.16 K, 3769 kPa	1141.2	–
333.16 K, 4787 kPa	1146.4	–
333.16 K, 5795 kPa	1151.4	–
333.16 K, 6804 kPa	1156.2	–
333.16 K, 7816 kPa	1160.8	–
333.16 K, 8825 kPa	1165.2	–
333.16 K, 9828 kPa	1169.5	–
333.16 K, 10837 kPa	1173.6	–
333.16 K, 11848 kPa	1177.7	–
333.16 K, 12859 kPa	1181.6	–
333.16 K, 13868 kPa	1185.4	–
333.16 K, 15876 kPa	1192.7	–
333.16 K, 16881 kPa	1196.2	–
333.16 K, 17896 kPa	1199.7	–
333.16 K, 18911 kPa	1203	–
333.16 K, 19925 kPa	1206.3	–
333.16 K, 20935 kPa	1209.5	–
333.16 K, 21937 kPa	1212.6	–
333.16 K, 23957 kPa	1218.6	–
333.16 K, 24963 kPa	1221.5	–
333.16 K, 25970 kPa	1224.4	–
333.16 K, 26975 kPa	1227.2	–
333.16 K, 27976 kPa	1229.9	–
333.16 K, 28983 kPa	1232.6	–
333.16 K, 29987 kPa	1235.2	–
333.16 K, 32999 kPa	1243	–
333.16 K, 34003 kPa	1245.5	–
333.17 K, 574 kPa	1123.1	–
333.17 K, 754 kPa	1124.2	–
333.17 K, 1756 kPa	1130.2	–
333.17 K, 2756 kPa	1135.8	–
333.17 K, 14875 kPa	1189.1	–
333.17 K, 22950 kPa	1215.6	–
335.15 K, 292.6 kPa	–	0.077
338.15 K, 92.1 kPa	–	0.26
338.15 K, 128.2 kPa	–	0.185
338.15 K, 209.7 kPa	–	0.111
338.15 K, 217.2 kPa	–	0.107
338.15 K, 240.9 kPa	–	0.096
338.15 K, 385.9 kPa	–	0.057
340.15 K, 298 kPa	–	0.077
343.14 K, 680 kPa	1090.7	–
343.14 K, 761 kPa	1091.4	–
343.14 K, 1766 kPa	1098.6	–
343.14 K, 2771 kPa	1105.3	–
343.14 K, 3798 kPa	1111.8	–
343.14 K, 4828 kPa	1117.9	–
343.14 K, 5833 kPa	1123.5	–
343.14 K, 6839 kPa	1129	–
343.14 K, 7846 kPa	1134.2	–
343.14 K, 8850 kPa	1139.2	–
343.14 K, 9856 kPa	1144	–
343.14 K, 10867 kPa	1148.6	–
343.14 K, 11874 kPa	1153.1	–
343.14 K, 12884 kPa	1157.5	–
343.14 K, 13894 kPa	1161.7	–
343.14 K, 14898 kPa	1165.7	–
343.14 K, 15909 kPa	1169.7	–
343.14 K, 16918 kPa	1173.5	–
343.14 K, 17921 kPa	1177.2	–
343.14 K, 18924 kPa	1180.9	–
343.14 K, 19929 kPa	1184.4	–
343.14 K, 20931 kPa	1187.8	–
343.14 K, 21941 kPa	1191.3	–
343.14 K, 22943 kPa	1194.6	–
343.14 K, 24955 kPa	1201	–
343.14 K, 25963 kPa	1204	–
343.14 K, 26970 kPa	1207.1	–
343.14 K, 27977 kPa	1210	–
343.14 K, 28983 kPa	1212.9	–
343.14 K, 29990 kPa	1215.8	–
343.14 K, 30998 kPa	1218.7	–
343.14 K, 32004 kPa	1221.4	–
343.14 K, 34007 kPa	1226.7	–
343.15 K, 93.6 kPa	–	0.26
343.15 K, 130.3 kPa	–	0.185
343.15 K, 213.3 kPa	–	0.111
343.15 K, 220.9 kPa	–	0.107
343.15 K, 245.1 kPa	–	0.096
343.15 K, 393.2 kPa	–	0.057
343.15 K, 23946 kPa	1197.8	–
343.15 K, 33006 kPa	1224.1	–
345.15 K, 303.3 kPa	–	0.077
348.15 K, 95 kPa	–	0.26
348.15 K, 132.4 kPa	–	0.185
348.15 K, 216.8 kPa	–	0.111
348.15 K, 224.6 kPa	–	0.107
348.15 K, 249.2 kPa	–	0.096
348.15 K, 400.6 kPa	–	0.057
350.15 K, 308.6 kPa	–	0.077
